The term IC50 denotes the concentration at which inhibition is half-maximal.

The structures appear in SMILES notation.

The target of this assay is rat brain cortical membranes ([35S]-TBPS binding; GABAA receptor). Kind of assay: Steroid inhibition of [35S]-TBPS binding (radioligand displacement). The following applies: 3 nM [35S]-TBPS, in the presence of 5 μM GABA, 90 min at room temp. The text has this:
TBPS binding assays using rat brain cortical membranes in the presence of […] GABA has been described (Gee et al, J. Pharmacol. Exp. Ther. 1987, 241, 346-353; Hawkinson et al, Mol. Pharmacol. 1994, 46, 977-985; Lewin, A. H et al., Mol. Pharmacol. 1989, 35, 189-194).
Briefly, cortices are rapidly removed following decapitation of carbon dioxide-anesthetized Sprague-Dawley rats (200-250 g). The cortices are homogenized in 10 volumes of ice-cold 0.32 M sucrose using a glass/teflon homogenizer and centrifuged at 1500×g for 10 min at 4° C. The resultant supernatants are centrifuged at 10,000×g for 20 min at 4° C.; to obtain the P2 pellets. The P2 pellets are resuspended in 200 mM NaCl/50 mM Na—K phosphate pH 7.4 buffer and centrifuged at 10,000×g for 10 min at 4° C. This washing procedure is repeated twice and the pellets are resuspended in 10 volumes of buffer. Aliquots (100 μL) of the membrane suspensions are incubated with 3 nM [^35S]-TBPS and 5 μL aliquots of test drug dissolved in dimethyl sulfoxide (DMSO) (final 0.5%) in the presence of 5 μM GABA. The incubation is brought to a final volume of 1.0 mL with buffer. Nonspecific binding is determined in the presence of 2 μM unlabeled TBPS and ranged from 15 to 25%. Following a 90 min incubation at room temp, the assays are terminated by filtration through glass fiber filters (Schleicher and Schuell No. 32) using a cell harvester (Brandel) and rinsed three times with ice-cold buffer. Filter bound radioactivity is measured by liquid scintillation spectrometry. Non-linear curve fitting of the overall data for each drug averaged for each concentration is done using Prism (GraphPad). […] The concentration of test compound producing 50% inhibition (IC50) of specific binding and the maximal extent of inhibition (Imax) are determined for the individual experiments with the same model used for the overall data and then the means±SEM.s of the individual experiments are calculated.
Various compounds are or can be screened to determine their potential as modulators of [^35S]-TBPS binding in vitro. These assays are or can be performed in accordance with the above discussed procedures.
In general terms: In a radioligand displacement assay an active substance lowers the binding of a labelled ligand.
Regarding `CC(C(=O)[C@H]1CC[C@H]2[C@@H]3CC[C@@H]4C[C@](C)(O)CC[C@@H]4[C@H]3CC[C@]12C)N1CCOCC1` (stereo partly drawn) [Compound 5, 1-((3R,5R,8R,9R,10S,13S,14S,17S)-3-hydroxy-3,13-dimethylhexadecahydro-1H-cyclopenta[a]phenanthren-17-yl)-2-morpholinopropan-1-one], the IC50 fell in the range of 250 to 500 nM.

In the case of `C[C@@H](C(=O)[C@H]1CC[C@H]2[C@@H]3CC[C@@H]4C[C@](C)(O)CC[C@@H]4[C@H]3CC[C@]12C)n1nccn1` [Compound 2, (S)-1-((3R,5R,8R,9R,10S,13S,14S,17S)-3-hydroxy-3,13-dimethylhexadecahydro-: 1H-cyclopenta[a]phenanthren-17-yl)-2-(2H-1,2,3-triazol-2-yl)propan-1-one], the IC50 was 50 to 100 nM.

Take `C[C@H](C(=O)[C@H]1CC[C@H]2[C@@H]3CC[C@@H]4C[C@](C)(O)CC[C@@H]4[C@H]3CC[C@]12C)n1nc2ccccc2n1` [Compound 7, (R)-2-(2H-benzo[d][1,2,3]triazol-2-yl)-1-((3R,5R,8R,9R,10S,13S,14S,17S)-3-hydroxy-3,13-dimethylhexadecahydro-1H-cyclopenta[a]phenanthren-17-yl)propan-1-one]: the IC50 is 250 to 500 nM.

On to `C[C@H](C(=O)[C@H]1CC[C@H]2[C@@H]3CC[C@@H]4C[C@](C)(O)CC[C@@H]4[C@H]3CC[C@]12C)n1cc(C#N)cn1` [Compound 4, 1-((R)-1-((3R,5R,8R,9R,10S,13S,14S,17S)-3-hydroxy-3,13-dimethylhexadecahydro-1H-cyclopenta[a]phenanthren-17-yl)-1-oxopropan-2-yl)-1H-pyrazole-4-carbonitrile], for which the IC50 fell in the range of 50 to 100 nM.

On to `C[C@@H](C(=O)[C@H]1CC[C@H]2[C@@H]3CC[C@@H]4C[C@](C)(O)CC[C@@H]4[C@H]3CC[C@]12C)n1nc2ccccc2n1` [Compound 6, (S)-2-(2H-benzo[d][1,2,3]triazol-2-yl)-1-((3R,5R,8R,9R,10S,13S,14S,17S)-3-hydroxy-3,1:3-dimethylhexadecahydro-1H-cyclopenta[a]phenanthren-17-yl)propan-1-one], for which the IC50 is under 50 nM.

For the molecule `C[C@@H](C(=O)[C@H]1CC[C@H]2[C@@H]3CC[C@@H]4C[C@](C)(O)CC[C@@H]4[C@H]3CC[C@]12C)n1cc(C#N)cn1` [Compound 3, 1-((S)-1-((3R,5R,8R,9R,10S,13S,14S,17S)-3-hydroxy-3,13-dimethylhexadecahydro-1H-cyclopenta[a]phenanthren-17-yl)-1-oxopropan-2-yl)-1H-pyrazole-4-carbonitrile], the IC50 was under 50 nM.

As for `C[C@H](C(=O)[C@H]1CC[C@H]2[C@@H]3CC[C@@H]4C[C@](C)(O)CC[C@@H]4[C@H]3CC[C@]12C)n1nccn1` [Compound 1, (R)-1-((3R,5R,8R,9R,10S,13S,14S,17S)-3-hydroxy-3,13-dimethylhexadecahydro-1H-cyclopenta[a]phenanthren-17-yl)-2-(2H-1,2,3-triazol-2-yl)propan-1-one], the half-maximal inhibitory concentration (IC50) lay within 250 to 500 nM.

The record behind these values is patent US12180248B2, “Compositions and methods for treating CNS disorders” (Sage Therapeutics, Inc., priority 2014, dated 2024).
